≈ marks a conversion by molar mass, not a printed value.
Tested on: Agrobacterium tumefaciens
Test: Antibacterial activity against Agrobacterium tumefaciens str. B6 assessed as growth inhibition after 48 hr by INT staining
Format: functional
Details: str. B6, 48 h

`CC(=O)c1c(O)cc(O)c(O)c1O[C@@H]1O[C@H](CO)[C@@H](O)[C@H](O)[C@H]1O` [LALIOSIDE] showed an MIC of 30 µg/mL (≈ 86.6 µM).

— ChEMBL document CHEMBL3045746, “Efficacy of Lawsonia inermis leaves extract and its phenolic compounds against olive knot and crown gall diseases” (2013)
